In patent US20180344726A1, “ABUSE RESISTANT TRANSDERMAL DELIVERY DEVICES AND COMPOSITIONS COMPRISING AN OPIOID AGONIST AND A NON-TRANSDERMALLY DELIVERED N-OXIDE DERIVATIVE OF AN OPIOID ANTAGONIST FOR THE TREATMENT OF PAIN” (priority 2015, published 2018):

Assays:
[1] = pKa analysis by pH-metric triple titration; type: physicochemical; settings: […] C., […] KCl
Method: (§1) pKa analysis was performed using a pH-metric method. […] No precipitation or degradation was observed and two pKas were determined from the potentiometric data. Log P was determined using the potentiometric (pH-metric method). The sample was titrated in various ratios of octanol/water in two titrations covering the pH range 2.0-12.0 at concentrations of 1.9-1.1 mM. The shift of the aqueous pKas in the presence of octanol was used to determine the log P of the neutral species.

[2] = Log P by potentiometric (pH-metric) octanol/water titration; type: physicochemical; settings: Neutral species, […] C., […] KCl
Method: as §1

[3] = Concentration of saturated antagonist solutions in phosphate buffer pH 5.0; type: physicochemical; settings: phosphate buffer pH 5.0, stirred overnight, filtered
Method: The determination of in vitro skin permeation was performed with saturated solutions of the respective antagonist species. Therefore an excess of the antagonist was weighed in phosphate buffer of pH 5.0 and stirred overnight. pH was monitored and, if necessary, adjusted. The cells were incubated at 32° C. Solutions were filtrated through a syringe filter (1 μm PTFE) prior to application into the diffusion cells. Concentrations of the solutions were determined.
The determination of naloxone and naloxone N-oxide in the acceptor medium of the in vitro skin permeations samples (receptor phase) was done by HPLC with UV-detection.

[4] = Intrinsic in vitro skin permeation of saturated antagonist solutions (Franz cell); type: in vitro ADME; settings: saturated donor solution pH 5.0, human skin
Method: Diffusion cells (made of glass) with a vertical application and a volume of 5 ml were used. The human skin used for the analysis came from an aesthetic operation. Belly skin from female donors was supplied from plastic surgery. After arrival, skin was visually checked whether it was without any scars and stretch marks. A layer of 200-400 μm was cut with a dermatome. The permeation area of 0.82 cm^2 was punched out of the skin.
The diffusion cell consists of a donor chamber and a receptor compartment, the skin is fixed between both. The sampling and volume replacement were executed via an autosampler.

[5] = In vitro skin permeation from prototype transdermal patches (Franz cell); type: in vitro ADME, human; settings: patches with naloxone N-oxide:opioid agonist 1:1, 3:1 or 5:1 by weight
Method: (§2) Naloxone N-oxide was incorporated into a prototype transdermal patch along with an opioid agonist. […] Batches of patches were prepared by weighing the appropriate amounts of the opioid agonist, Naloxone N-oxide and dry patch matrix of poly(meth)acrylate and dissolving in ethylacetate. The matrix solvent system was added and stirred for 30 minutes on a magnetic stirrer to yield a homogenous mixture. After mixing, the drug/polymer mixture was hand cast onto a release liner, Loparex Prime Liner FL 2000. Casting was carried out with a casting knife of variable width to achieve a target dry area weight matrix of 55 g/m^2. The cast was then dried at room temperature for 10 minutes, transferred to a convection oven and dried at 70° C. for 15 minutes and at 100° C. for 5 minutes. Finally the dried casts were hand-laminated with an occlusive backing, Scotchpak 9738, and patches were cut out of the laminate with 0.82 cm^2 cutting dies for skin permeation and 5 cm^2 for stability experiments.
The in vitro skin permeation of opioid agonist from each of the patches was tested using a Franz cell as described above.

[6] = Stability of prototype patches over 6 days at 60° C.; type: physicochemical
Method: as §2
The stability of each of the patches over 6 days at 60° C. was also tested.

## C=CC[N+]1([O-])CC[C@]23c4c5ccc(O)c4O[C@H]2C(=O)CC[C@@]3(O)[C@H]1C5 (stereo partly shown) [Naloxone N-oxide]
[1]; Type Acid
  pKa: 8.55 ± 0.01
[1]; Type Base
  pKa: 2.96 ± 0.01
[2]
  logP: −0.42
[3]
  Concentration saturated solution c: 3960 µg/mL
[4]
  Permeation through the skin (in words): Naloxone N-oxide did not permeate through the skin.
[5]
  N-oxide permeated through the skin from patch: no detectable levels
[6]
  Impact on the stability of the patch: does not impact on the stability of the patch
